# Laboratory results from patent US10154957B2, “Microneedle device having a peptide therapeutic agent and an amino acid and methods of making and using the same” (3M INNOVATIVE PROPERTIES COMPANY, priority 2011, dated 2018).
# Test: Percent purity of PTHrP analogue (10 mg/mL formulations) in coating on arrays stored at 25° C./60% RH or 5° C./ambient RH (HPLC)
# Type: physicochemical
# Protocol: The protein or polypeptide content in the formulation coated on the microneedle arrays was determined using an Agilent 1100 HPLC system (Agilent Technologies, Wilmington, Del.) equipped with a binary pump, well-plated thermostated autosampler, thermostated column compartment, and a diode array UV detector. A Zorbax 300SB-C8 column (Agilent Technologies, Wilmington, Del.) having a 5 μm particle size and 2.1×150 mm inner diameter was used for the separations. The column was maintained at 50° C. The mobile phase consisted of two eluents. Eluent A was 0.1% TFA (trifluoroacetic acid) in water and eluent B was 0.1% TFA in acetonitrile (Spectrum Chemical, New Brunswick, N.J.). A linear gradient from 80/20 to 50/50 (A/B) was applied over 30 minutes. The flow rate was 0.4 mL/minute and the UV detection wavelength was set at 214 nm. The total run time was 34 minutes and the sample injection volume was 15 μL.
# A sample formulation containing 10 mg/mL of [Glu^22,25,Leu^23,28,31,Aib^29,Lys^26,30]hPTHrP(1-34)NH2 and 10 mg/mL of L-histidine monohydrochloride (His-HCl) in PBS was prepared. A control formulation was also prepared containing 10 mg/mL of [Glu^22,25,Leu^23,28,31,Aib^29,Lys^26,30]hPTHrP(1-34)NH2 in PBS. […] Microneedle arrays were coated with either the sample or the control formulation. The coating was applied by dropwise addition of 40 μL of the formulation to the portion of the array defined by the octagon shaped pattern of microneedles. The coated arrays (both sample and control formulation coated) were dried in an oven at 35° C. for 1.5 hours followed by 30° C. for 15 hours.
# After drying, the coated arrays were placed in a storage chamber that was maintained at either 25° C./60% RH or 5° C./ambient RH. The [Glu^22,25,Leu^23,28,31,Aib^29,Lys^26,30]hPTHrP(1-34)NH2 content of the coated arrays was determined following storage in the chamber for 7 days, 14 days, 28 days, and 2 months. The initial [Glu^22,25,Leu^23,28,31,Aib^29,Lys^26,30]hPTHrP(1-34)NH2 content was also determined using freshly coated arrays (both sample and control formulation coated). The arrays used to determine initial content were stored in a refrigerator at about 4° C. and analyzed within one day of being prepared. At the designated time point, an array was taken from the chamber and washed with PBS (3.5 mL) to remove the coating from the array. An aliquot of the resulting wash solution was analyzed for [Glu^22,25,Leu^23,28,31,Aib^29,Lys^26,30]hPTHrP(1-34)NH2 content using the HPLC method described above. The results were quantified against an external standard of [Glu^22,25,Leu^23,28,31,Aib^29,Lys^26,30]hPTHrP(1-34)NH2. At each time point, the percent purity of [Glu^22,25,Leu^23,28,31,Aib^29,Lys^26,30]hPTHrP(1-34)NH2 in the coating was determined by measuring the peak area for [Glu^22,25,Leu^23,28,31,Aib^29,Lys^26,30]hPTHrP(1-34)NH2 in the selected coating and dividing it by the total peak area measured for all [Glu^22,25,Leu^23,28,31,Aib^29,Lys^26,30]hPTHrP(1-34)NH2 related peaks.
# The same procedure as described in Example 10 was used with the exception that the sample formulation contained 10 mg/mL of L-arginine hydrochloride, instead of L-histidine monohydrochloride.
substance,measurement,setting,value
"[Glu^22,25,Leu^23,28,31,Aib^29,Lys^26,30]hPTHrP(1-34)NH2","Percent Purity of [Glu^22,25, Leu^23,28,31, Aib^29, Lys^26,30]hPTHrP(1-34)NH2","Amino Acid L-Arginine (Arg-HCl 10 mg/mL), peptide in PBS, Storage Condition 5° C./ambient RH, 0 day",99.0%
same,"Percent Purity of [Glu^22,25, Leu^23,28,31, Aib^29, Lys^26,30]hPTHrP(1-34)NH2","Amino Acid L-Arginine (Arg-HCl 10 mg/mL), peptide in PBS, Storage Condition 5° C./ambient RH, 2 months",98.4%
same,"Percent Purity of [Glu^22,25, Leu^23,28,31, Aib^29, Lys^26,30]hPTHrP(1-34)NH2","Amino Acid L-Arginine (Arg-HCl 10 mg/mL), peptide in PBS, Storage Condition 5° C./ambient RH, 7 day",98.8%
same,"Percent Purity of [Glu^22,25, Leu^23,28,31, Aib^29, Lys^26,30]hPTHrP(1-34)NH2","Amino Acid L-Arginine (Arg-HCl 10 mg/mL), peptide in PBS, Storage Condition 5° C./ambient RH, 14 day",98.8%
same,"Percent Purity of [Glu^22,25, Leu^23,28,31, Aib^29, Lys^26,30]hPTHrP(1-34)NH2","Amino Acid L-Arginine (Arg-HCl 10 mg/mL), peptide in PBS, Storage Condition 5° C./ambient RH, 28 day",98.8%
same,"Percent Purity of [Glu^22,25, Leu^23,28,31, Aib^29, Lys^26,30]hPTHrP(1-34)NH2","Amino Acid L-Arginine (Arg-HCl 10 mg/mL), peptide in PBS, Storage Condition 25° C./60% RH, 0 day",99.0%
same,"Percent Purity of [Glu^22,25, Leu^23,28,31, Aib^29, Lys^26,30]hPTHrP(1-34)NH2","Amino Acid L-Arginine (Arg-HCl 10 mg/mL), peptide in PBS, Storage Condition 25° C./60% RH, 2 months",97.8%
same,"Percent Purity of [Glu^22,25, Leu^23,28,31, Aib^29, Lys^26,30]hPTHrP(1-34)NH2","Amino Acid L-Arginine (Arg-HCl 10 mg/mL), peptide in PBS, Storage Condition 25° C./60% RH, 7 day",98.8%
same,"Percent Purity of [Glu^22,25, Leu^23,28,31, Aib^29, Lys^26,30]hPTHrP(1-34)NH2","Amino Acid L-Arginine (Arg-HCl 10 mg/mL), peptide in PBS, Storage Condition 25° C./60% RH, 14 day",98.6%
same,"Percent Purity of [Glu^22,25, Leu^23,28,31, Aib^29, Lys^26,30]hPTHrP(1-34)NH2","Amino Acid L-Arginine (Arg-HCl 10 mg/mL), peptide in PBS, Storage Condition 25° C./60% RH, 28 day",98.7%
same,"Percent Purity of [Glu^22,25, Leu^23,28,31, Aib^29, Lys^26,30]hPTHrP(1-34)NH2","Amino Acid L-Histidine (His-HCl 10 mg/mL), peptide 10 mg/mL in PBS, Storage Condition 5° C./ambient RH, 2 months",98.7%
same,"Percent Purity of [Glu^22,25, Leu^23,28,31, Aib^29, Lys^26,30]hPTHrP(1-34)NH2","Amino Acid L-Histidine (His-HCl 10 mg/mL), peptide 10 mg/mL in PBS, Storage Condition 5° C./ambient RH, Day 7",98.9%
same,"Percent Purity of [Glu^22,25, Leu^23,28,31, Aib^29, Lys^26,30]hPTHrP(1-34)NH2","Amino Acid L-Histidine (His-HCl 10 mg/mL), peptide 10 mg/mL in PBS, Storage Condition 5° C./ambient RH, Day 14",98.9%
same,"Percent Purity of [Glu^22,25, Leu^23,28,31, Aib^29, Lys^26,30]hPTHrP(1-34)NH2","Amino Acid L-Histidine (His-HCl 10 mg/mL), peptide 10 mg/mL in PBS, Storage Condition 5° C./ambient RH, Day 28",98.9%
same,"Percent Purity of [Glu^22,25, Leu^23,28,31, Aib^29, Lys^26,30]hPTHrP(1-34)NH2","Amino Acid L-Histidine (His-HCl 10 mg/mL), peptide 10 mg/mL in PBS, Storage Condition 5° C./ambient RH, Initial",99.0%
same,"Percent Purity of [Glu^22,25, Leu^23,28,31, Aib^29, Lys^26,30]hPTHrP(1-34)NH2","Amino Acid L-Histidine (His-HCl 10 mg/mL), peptide 10 mg/mL in PBS, Storage Condition 25° C./60% RH, 2 months",98.6%
same,"Percent Purity of [Glu^22,25, Leu^23,28,31, Aib^29, Lys^26,30]hPTHrP(1-34)NH2","Amino Acid L-Histidine (His-HCl 10 mg/mL), peptide 10 mg/mL in PBS, Storage Condition 25° C./60% RH, Day 7",98.9%
same,"Percent Purity of [Glu^22,25, Leu^23,28,31, Aib^29, Lys^26,30]hPTHrP(1-34)NH2","Amino Acid L-Histidine (His-HCl 10 mg/mL), peptide 10 mg/mL in PBS, Storage Condition 25° C./60% RH, Day 14",98.8%
same,"Percent Purity of [Glu^22,25, Leu^23,28,31, Aib^29, Lys^26,30]hPTHrP(1-34)NH2","Amino Acid L-Histidine (His-HCl 10 mg/mL), peptide 10 mg/mL in PBS, Storage Condition 25° C./60% RH, Day 28",98.9%
same,"Percent Purity of [Glu^22,25, Leu^23,28,31, Aib^29, Lys^26,30]hPTHrP(1-34)NH2","Amino Acid L-Histidine (His-HCl 10 mg/mL), peptide 10 mg/mL in PBS, Storage Condition 25° C./60% RH, Initial",99.0%
same,"Percent Purity of [Glu^22,25, Leu^23,28,31, Aib^29, Lys^26,30]hPTHrP(1-34)NH2","Amino Acid None (control), peptide 10 mg/mL in PBS, Storage Condition 5° C./ambient RH, 2 months",97.3%
same,"Percent Purity of [Glu^22,25, Leu^23,28,31, Aib^29, Lys^26,30]hPTHrP(1-34)NH2","Amino Acid None (control), peptide 10 mg/mL in PBS, Storage Condition 5° C./ambient RH, Day 7",98.2%
same,"Percent Purity of [Glu^22,25, Leu^23,28,31, Aib^29, Lys^26,30]hPTHrP(1-34)NH2","Amino Acid None (control), peptide 10 mg/mL in PBS, Storage Condition 5° C./ambient RH, Day 14",98.4%
same,"Percent Purity of [Glu^22,25, Leu^23,28,31, Aib^29, Lys^26,30]hPTHrP(1-34)NH2","Amino Acid None (control), peptide 10 mg/mL in PBS, Storage Condition 5° C./ambient RH, Day 28",97.6%
same,"Percent Purity of [Glu^22,25, Leu^23,28,31, Aib^29, Lys^26,30]hPTHrP(1-34)NH2","Amino Acid None (control), peptide 10 mg/mL in PBS, Storage Condition 5° C./ambient RH, Initial",98.7%
same,"Percent Purity of [Glu^22,25, Leu^23,28,31, Aib^29, Lys^26,30]hPTHrP(1-34)NH2","Amino Acid None (control), peptide 10 mg/mL in PBS, Storage Condition 25° C./60% RH, 2 months",96.3%
same,"Percent Purity of [Glu^22,25, Leu^23,28,31, Aib^29, Lys^26,30]hPTHrP(1-34)NH2","Amino Acid None (control), peptide 10 mg/mL in PBS, Storage Condition 25° C./60% RH, Day 7",98.0%
same,"Percent Purity of [Glu^22,25, Leu^23,28,31, Aib^29, Lys^26,30]hPTHrP(1-34)NH2","Amino Acid None (control), peptide 10 mg/mL in PBS, Storage Condition 25° C./60% RH, Day 14",97.7%
same,"Percent Purity of [Glu^22,25, Leu^23,28,31, Aib^29, Lys^26,30]hPTHrP(1-34)NH2","Amino Acid None (control), peptide 10 mg/mL in PBS, Storage Condition 25° C./60% RH, Day 28",97.5%
same,"Percent Purity of [Glu^22,25, Leu^23,28,31, Aib^29, Lys^26,30]hPTHrP(1-34)NH2","Amino Acid None (control), peptide 10 mg/mL in PBS, Storage Condition 25° C./60% RH, Initial",98.7%
